Laboratory results reported in patent US20250120944A1, “ANTIBACTERIAL COMPOSITION” (SEOUL NATIONAL UNIVERSITY R&DB FOUNDATION, priority 2021, published 2025).

Key:
LC3 [1] = assay: immunoblotting of LC3 in S. typhimurium-infected J774A.1 cells treated with a lysosomal V-ATPase inhibitor; assay type: cell-based; conditions: 100 nM, 4 hours
Description: (§1) First, J774A.1 macrophages (Korean Cell Line Bank) were cultured in RPMI (Rosewell Park Memorial Institue) supplemented with 10% FBS and 100 units/mL penicillin/streptomycin, and HeLa cells were cultured in Dulbecco's Modified Eagle's Medium (DMEM; Gibco, 10566016) supplemented with 10% FBS and 100 units/mL penicillin/streptomycin. All cell lines were tested negative for mycoplasma using the MycoAlert detection kit (Lonza, LT07-118), and all culture plates and cell lines were maintained in a humidified incubator at 37° C. and 5% CO2.
Macrophage J774A.1 and HeLa cells were infected with Salmonella typhimurium, a Gram-negative bacterium, and the expression of LC3 was monitored through immunoblotting. Mouse monoclonal anti-[…] (Abcam, ab56416, 1: 100,000) was used for immunoblotting, rabbit polyclonal anti-LC3 (Sigma, L7543, 1:40,000) was used for immunoblotting, and anti-rabbit IgG-HRP (Cell Signaling, 7074, 1:10,000) and anti-mouse IgG-HRP (Cell Signaling, 7076, 1:1000) were used as secondary antibodies.
The J774A.1 cells of Experimental Example 1-1 were treated with bafilomycin A1 (100 nM), an inhibitor of lysosomal V-ATPase, for 4 hours, and immunoblotting was performed in the same manner as in Experimental Example 1-1. However, there was no difference in the degree of inhibition of LC3-I and LC-II expression even when treated with lysosomal V-ATPase inhibitor (FIG. 1E).

LC3 [2] = assay: immunoblotting of LC3 in J774A.1 and HeLa cells treated with LPS; assay type: cell-based; conditions: 100 ng/mL, 6 hours
Description: as §1
[…] Mouse monoclonal anti-β62 (Abcam, ab56416, 1: 100,000) was used for immunoblotting, rabbit polyclonal anti-LC3 (Sigma, L7543, 1:40,000) was used for immunoblotting, and anti-rabbit IgG-HRP (Cell Signaling, 7074, 1:10,000) and anti-mouse IgG-HRP (Cell Signaling, 7076, 1:1000) were used as secondary antibodies.
In addition, in order to rule out the possibility that J774A.1 and HeLa cells lack the ability to induce autophagy in response to pathogen invasion, the J774A.1 and HeLa cells of Experimental Example 1-1 were treated with lipopolysaccharide (LPS) (100 ng/mL), a component of the outer membrane of Gram-negative bacteria, as a pathogen-associated molecular pattern (PAMP) for 6 hours, and immunoblotting was performed in the same manner as in Experimental Example 1-1.

CO/C1=C\C(C)=C\[C@@H](C)[C@@H](O)[C@@H](C)C/C(C)=C/C=C/[C@H](OC)[C@@H]([C@@H](C)[C@@H](O)[C@H](C)[C@@]2(O)C[C@@H](O)[C@H](C)[C@@H](C(C)C)O2)OC1=O [bafilomycin A1]
degree of inhibition of LC3-I and LC-II expression (LC3 [1]): no difference

lipopolysaccharide [LPS]
lipidation of LC3 (LC3-II) (LC3 [2]): strongly induced | synthesis of LC3 (LC3-I) (LC3 [2]): strongly induced
